Measured values published in patent publication US7365223B2, “Method for selective targeting of apoptotic cells and small molecule ligands used thereof” (NST NeuroSurvival Technologies Ltd, priority 2003, dated 2008).

Tests used:
[1] = system: Jurkat cells undergoing apoptosis induced by anti-Fas Ab; assay: Selective binding to apoptotic Jurkat cells; flow-cytometric (FACS) analysis; type: cell-based, human; details: 20 minutes
Description: Cultured Jurkat cells (human adult T cell leukemia cells) were grown in suspension in RPMI medium (Beit-Haemek, Israel), supplemented with 10% of fetal calf serum (FCS), 4 mM of L-glutamine, 1 mM of sodium pyruvate, […] and antibiotics (100 units/ml penicillin; 100 μg/ml streptomycin and 12.5 units/ml of nystatin). Prior to induction of apoptosis, medium was replaced with HBS buffer (10 mM HEPES; 140 mM NaCl, 1 mM CaCl). Apoptosis was then triggered by treatment with anti-Fas Ab (0.1 μg/ml; 3 hrs). As a result, a marked percentage of the cells became apoptotic, and is regarded as newly formed early apoptotic cells. Non-treated cells served as control. Both control cells and apoptotic cells were then incubated for 20 minutes with 100 μM of NST705. […] The analysis shown in FIG. 1 describes the uptake of NST705 compound into the population of apoptotic cells in control and anti-fas treated cultures.
(§1) In the dot plot shown in FIG. 1A and FIG. 1B, the left lower quadrant represents the healthy, non-stained fraction of cells. The right lower quadrant represents the newly formed population of cells in the early stages of apoptosis. These cells still maintain membrane integrity and thus exclude PI. Cells binding both NST705 and PI, i.e., cells in the late stages of apoptosis are represented in the right upper quadrant.
(§2) Cultured Jurkat cells (human adult T cell leukemia cells) were grown in suspension in RPMI medium (Beit-Haemek, Israel), supplemented with 10% of fetal calf serum (FCS), 2 mM of L-glutamine, 1 mM of sodium pyruvate, […] and antibiotics (100 units/ml penicillin; 100 μg/ml streptomycin and 12.5 units/ml of nystatin). Prior to induction of apoptosis, medium was replaced with HBS buffer (10 mM HEPES; 140 mM NaCl, 1 mM CaCl). Apoptosis was then triggered by treatment with anti-Fas Ab (0.1 μg/ml; 3 hrs). As a result, a marked percentage of the cells became apoptotic. Non-treated cells served as control. Both control cells and apoptotic cells were then incubated for 20 minutes with 100 μM of NST703. Subsequently, cells were co-stained with propidium iodide (P). Binding of NST703 to the control and apoptotic cells was determined by flow cytometric (FACS) analysis using Becton-Dickinson cell sorter and CellQuest software (excitation was at 356 nm and emission was measured at 530 nm).
as §1, with “2A” for “1A”, “2B,” for “FIG. 1B,”, “NST703” for “NST705”
as §2, with “penicilin;” for “penicillin;”, “DC.” for “NST703.”, “(PI).” for “(P).”, “DC” for “NST703”
FIG. 4A and FIG. 4B are each a representative FACS dot plot, showing that activation of apoptosis leads to a marked uptake of DC by cells in the early stages of apoptosis (FIG. 4B), as compared to control cells (FIG. 4A). […]

[2] = system: apoptotic cells in B16-F10 murine melanoma tumor; assay: Targeting in-vivo to apoptotic cells in tumor, murine melanoma; fluorescent microscopy; parameters: species or system mice; details: 2 mg/mouse intravenously, 2 hours
Description: Tumors, and especially aggressive malignancies such as melanoma are characterized, in addition to the abnormal tissue proliferation, also by marked apoptosis of tumor cells. The performance of DC in selective targeting of these apoptotic cells within the tumor was therefore examined Mice (c57/black; 8 weeks old male mice) were injected subcutaneously bilaterally, in the flank, with murine melanoma-derived B16-F10 cells (ATCC CRL-6475; 10^5 cells/mice in a volume of 100 μl). Prior to injection, the cell line was maintained in culture in Dulbecco's modified Eagle's medium (DMEM), supplemented with 4 mM of L-glutamine; 100 units/ml of penicillin; 100 μg/ml of streptomycin; 12.5 units/ml of nystatin and 10% of fetal calf serum (FCS). Tumors were allowed to grow for 14 days, by which they reached a diameter of 5-7 mm.
(§3) The DC compound (2 mg/mouse in NaPpi buffer, pH. 7.40) was injected intravenously. Two hours later, the mice were scarified and the tumors, as well as other organs were taken, and immediately frozen in liquid nitrogen. Frozen sections were then prepared from each of the organs. Uptake of DC by the tumors or other organs was assessed by fluorescent microscopy.
The performance of NST730 in selective targeting to apoptotic cells within a tumor examined as described in Example 7. Mice (c57/black; 8 weeks old male mice) were injected subcutaneously bilaterally, in the flank, with murine melanoma-derived B16-F10 cells (ATCC CRL-6475; 10^5 cells/mice in a volume of 100 μl). Tumors were allowed to grow for 14 days, by which they reached a diameter of 5-7 mm.
as §3, with “The NST730 compound (2” for “The DC compound (2”, “Uptake of NST730 by the” for “Uptake of DC by the”, “tumors or by other organs” for “tumors or other organs”

apoptotic HeLa S3 cells = assay: Selective binding to apoptotic HeLa cells in vitro; flow-cytometric analysis; type: cell-based; details: culture aged 96 hours; FACS
Description: HeLa S3 cells (ATCC CCL-2.2) were grown in Dulbecco's modified Eagle's medium (DMEM), supplemented with 2 mM of L-glutamine; 100 units/ml of penicillin; 100 μg/ml of streptomycin; 12.5 units/ml of nystatin and 10% of fetal calf serum (FCS). Cells were seeded at a density of 5×10^6 cells/plate, on a […] culture plates, in a volume of 10 ml, and were allowed to age by incubating the culture for 96 hours without exchange of the growth medium. As a result, a marked percentage of the cells became apoptotic. Cells were harvested using a cell scraper, separated to single cells by passage through a syringe with a 18 G needle, and re-suspended at a density of 10^6 cells/ml in PBS buffer at pH=7.4. […] The analysis shown in FIG. 10 describes the uptake of NST601 compound into the population of apoptotic cells.

[3] = system: chemotherapy-induced apoptotic cells of lymphoma tumors; assay: In-vivo targeting to chemotherapy-induced apoptotic cells of lymphoma tumors; fluorescent microscopy; details: DBA/2 mice, Taxol 20 mg/Kg; 1.4 mg/mouse injected 24 h later, 2 hours
Description: Lymphoma tumors were induced in 8 weeks old male DBA/2 mice (Harlan laboratories, UK) by subcutaneous injection of lymphoma cells. The cells, from a chemically-induced LY-R clone were obtained from ATCC(CRL-1722), and maintained by subsequent passages in mice. For induction of tumors, 5×10^5 cells in a volume of 100 μl were injected into the thigh region in mice. […] Twenty-four hours later, NST705 was injected systemically at a dose of 1.4 mg/mouse. Two hours later, mice were sacrificed and tumors were frozen in liquid nitrogen. Cryosections were then prepared and serial slides were subjected to either hematoxylin & eosin (H&E) staining or fluorescent microscopy evaluation (excitation wavelength of 360 nm, emission at 530 nm), using an Olympus fluorescent microscope (model IX70).

[4] = system: neuronal cell death following MCA occlusion; assay: Detection of neuronal cell death following middle cerebral artery (MCA) occlusion; type: in vivo; details: Balb/C mice; 70 mg/kg intravenously 22 hours after MCA cauterization, 2 hours
Description: (§4) Cerebral ischemia was induced in Balb/C mice (10-12 weeks) by cauterization of the middle cerebral artery. Mice were anesthetized, and the temporal bone was exposed. Scraping off the bone up to a minimal hole allowed exposure of the artery subjecting it to cauterization. 22 hours later, NST732 (70 mg/kg) was injected intravenously. Two hours later (at 24 h from induction of the injury), mice were anesthetized and sacrificed, and brains were removed into liquid nitrogen for histopathological analysis of the frozen sections. Four μm thick sections were prepared for fluorescent microscopic analysis to follow the cells stained positively with NST732.
as §4, with “cauterization,” for “cauterization.”, “NST730” for “NST732”, “sections, as described in Example 11.” for “sections. Four μm thick sections were prepared for fluorescent microscopic analysis to follow the cells stained positively with NST732.”

[5] = system: murine lymphoma cells undergoing cell death induced by irradiation; assay: Detection of cell death induced by irradiation in vivo; murine lymphoma; details: irradiated DBA mice (3 fractions of 6 Gray); 70 mg/kg intravenously, 2 hours
Description: DBA mice (5-6 weeks old males, Jackson laboratories) were injected subcutaneous with 10^6 lyS cells in 50 μl saline and were examined daily for tumor formation. At days 8, 9 and 10 mice were placed in a Perspex box and irradiated with 6MV x-rays apparatus (Linac) in fractions of 6 Gray each. Each mouse received a dose of about 1.0 centiGray per monitor unit. At day 13 (72 hours following the last irradiation) mice were injected intravenously with NST 732 (70 mg/kg, dissolved in Tris base containing 25% cremophore RH410, pH=9). After 2 hours, tumors were excised, frozen in liquid nitrogen and submitted for histopathological assessment.

[6] = apoptotic cells (anti-Fas Ab 0.1 μg/ml, 3 hrs), 100 μM compound
[7] = non-treated control cells, 100 μM compound

CN(C)c1cccc2c(S(=O)(=O)O)cccc12 [DA, dansylic acid]
percent of identified early apoptotic events within the population (cells binding compound, excluding PI) ([1]; apoptotic cells (anti-Fas Ab 0.1 μg/ml, 3 hrs), 250 μM compound): 77% | percent of identified early apoptotic events within the population (cells binding compound, excluding PI) ([1]; non-treated control cells, 250 μM compound): 4.2%

CN(C)c1cccc2c(S(=O)(=O)N[C@@H](CS)C(=O)O)cccc12 [DC, dansylcysteine]
percent of identified early apoptotic events within the population (cells binding compound, excluding PI) [1, 6]: 76% | percent of identified early apoptotic events within the population (cells binding compound, excluding PI) [1, 7]: 2.3% | binding to normal, viable tissue ([2]; small intestine tissue of the same animal): lack of binding | binding to tumor cells undergoing apoptosis [2]: Extensive binding | staining of viable tumor cells [2]: remain unstained

CCCCN(C)c1cccc2c(S(=O)(=O)O)cccc12 [NST601, 5-Butylmethylamino-naphtalene-1-sulfonic acid]
binding to apoptotic cells (apoptotic HeLa S3 cells): selective binding | staining of cells that do not undergo a process of cell death (apoptotic HeLa S3 cells): remained non-stained

CCCCN(C)c1cccc2c(S(=O)(=O)NCC(=O)O)cccc12 [NST703, (5-Butylmethylamino-naphtalene-1-sulfonyl)-glycine]
percent of identified early apoptotic events within the population (cells binding compound, excluding PI) [1, 6]: 75.6% | percent of identified early apoptotic events within the population (cells binding compound, excluding PI) [1, 7]: 3.27%

CCCCN(CCCC)c1cccc2c(S(=O)(=O)N[C@@H](CC(=O)O)C(=O)O)cccc12 [NST705, (5-dibutylamino-naphthalene-1-sulfonyl)-L-aspartic acid]
percent of identified early apoptotic events within the population (cells binding compound, excluding PI) [1, 6]: 70.8% | percent of identified early apoptotic events within the population (cells binding compound, excluding PI) [1, 7]: 3% | uptake by tumor cells undergoing cell death [3]: marked uptake | uptake by viable, non-apoptotic tumor cells [3]: not observed

CN(C)c1cccc2c(S(=O)(=O)NC(C)(CF)C(=O)O)cccc12 (stereo not drawn) [NST730]
binding to other non-target tissues ([2]; colon, kidney, spleen and heart): lack of significant binding | binding to normal, viable tissue ([2]; muscle tissue of the same animal): lack of binding | binding to tumor cells undergoing apoptosis [2]: Extensive binding | staining of viable tumor cells [2]: remain unstained | binding to cells in the infarcted (damaged) area [4]: extensive binding | binding to cells outside the infarcted area [4]: did not manifest significant binding

CCC(CF)(NS(=O)(=O)c1cccc2c(N(C)C)cccc12)C(=O)O (stereo not drawn) [NST732]
binding to tumor cells undergoing apoptosis [5]: extensive binding | binding to cells in the infarcted (damaged) area [4]: extensive binding | binding to cells outside the infarcted area [4]: did not manifest significant binding
